Our source for the IC50 values is patent US10131679B2, “Substituted dihydropyrrolopyrazole compound” (UBE INDUSTRIES, LTD., priority 2014, dated 2018).

Some results are limits rather than exact numbers.

The subject of the first experiment is IL-17 production in human PBMC-derived T cells. Nature of the experiment: Human PBMC various-stimulant cocktail-induced IL-17 production inhibition test. The note with it: 120 h; human T-cell suspension from PBMC, cocktail of various stimulants, incubation for 5 days, ELISA. The class given is cell-based. From the text:
Human PBMC Various-Stimulant Cocktail-Induced IL-17 Production Inhibition Test
PBMC was separated and collected by using Ficoll-Paque (17-1440-02 manufactured by GE Healthcare Japan Corp.) from blood collected from healthy human adult in the presence of heparin. The collected PBMC was further cultured in a flask for a certain time, and then, non-adherent cells in the supernatant were collected and used as a T-cell suspension. RPMI1640 medium (manufactured by GIBCO/Thermo Fisher Scientific, Inc., REF. 11875), which is containing 10% FBS (manufactured by GIBCO/Thermo Fisher Scientific, Inc., REF. 10082), 1% penicillin/streptomycin/amphotericin B (manufactured by GIBCO/Thermo Fisher Scientific, Inc., REF. 15240-096), 1% nonessential amino acids (manufactured by GIBCO/Thermo Fisher Scientific, Inc., REF. 11140-050), and 1% pyruvic acid (manufactured by GIBCO/Thermo Fisher Scientific, Inc., REF. 11140) and containing a test compound dissolved in DMSO, 2 μg/mL (final concentration) CD28 antibody (manufactured by BioLegend, Inc., Cat. No. 302914), 10 μg/mL (final concentration) human IFN-γ antibody (manufactured by BD Biosciences, Cat. No. 554698), 10 μg/mL (final concentration) human IL-4 antibody (manufactured by BD Biosciences, Cat. No. 554481), 20 ng/mL (final concentration) human IL-6 (manufactured by BioLegend, Inc., Cat. No. 570802), 10 ng/mL (final concentration) human IL-23 (manufactured by BioLegend, Inc., Cat. No. 574102), 10 ng/mL (final concentration) human IL-1(3 (manufactured by PeproTech Inc., Cat. No. 200-01B), and 10 ng/mL (final concentration) human TGF-13 (manufactured by BioLegend, Inc., Cat. No. 580702), was added at 100 μL/well to T cell Activation Plate Anti-Human CD3 96-well plate (manufactured by Corning Inc., REF. 354725). Subsequently, 100 μL of a T-cell suspension adjusted to 2×10^5 cells/mL was added to each well (final DMSO concentration: 0.1%). Only DMSO was added to wells in the absence of the test compound. After incubation for 5 days in a carbon dioxide incubator, the culture supernatant was collected and stored at −20° C. until IL-17 content measurement.
In the IL-17 content measurement in the culture supernatant, a sandwich ELISA kit (Quantikine Human IL-17, manufactured by R&D Systems, Inc.) was used. The IL-17 content of each sample was calculated from the calibration curve of Standard IL-17 included in the kit. When the amount of IL-17 produced by the cocktail of various stimulants in the case of the addition of only DMSO was defined as 100%, the rate of inhibition of IL-17 production at each concentration of the test compound was calculated. The concentration of the test compound necessary for inhibiting 50% of IL-17 production (IC50 value) was calculated from the concentration of the added test compound and the rate of inhibition of IL-17 production by the test compound by using EXSUS (version 8.0.0 or version 8.0.1, manufactured by CAC Exicare Corp.).
In general terms: ELISA stands for enzyme-linked immunosorbent assay.
The term IC50 denotes the concentration needed to halve the response being measured. A high value points to weaker potency. In the case of `CC(C)(CO)C(NC(=O)N1Cc2c(NC(=O)C3([Si](C)(C)C)CCC3)n[nH]c2C1(C)C)c1ccc(F)cc1` (stereo not shown) [IV-946, N-[1-(4-Fluorophenyl)-3-hydroxy-2,2-dimethylpropyl]-6,6-dimethyl-3-[1-(trimethylsilyl)cyclobutanecarboxamido]-4,6-dihydropyrrolo[3,4-c]pyrazole-5(1H)-carboxamide], the half-inhibitory concentration (IC50) is ≤ 50 nM.

As for `CC(C)(CO)C(NC(=O)N1Cc2c(NC(=O)C3([Si](C)(C)C)CCC3)n[nH]c2C1(C)C)c1cccc(F)c1` (stereo not shown) [IV-918, N-[1-(3-Fluorophenyl)-3-hydroxy-2,2-dimethylpropyl]-6,6-dimethyl-3-[1-(trimethylsilyl)cyclobutanecarboxamido]-4,6-dihydropyrrolo[3,4-c]pyrazole-5(1H)-carboxamide], the concentration for half-maximal inhibition (IC50) is ≤ 50 nM.

On to `CC1(C)c2[nH]nc(NC(=O)C3([Si](C)(C)C)CCC3)c2CN1C(=O)[C@H](OC(F)F)c1ccccc1` [IV-1180, (R)—N-{5-[2-(Difluoromethoxy)-2-phenylacetyl]-6,6-dimethyl-1,4,5,6-tetrahydropyrrolo[3,4-c]pyrazol-3-yl}-1-(trimethylsilyl)cyclobutanecarboxamide], for which the half-maximal inhibitory concentration (IC50) was ≤ 50 nM.

For the compound `CC(C)(CO)C(NC(=O)N1Cc2c(NC(=O)C3([Si](C)(C)C)CCC3)n[nH]c2C1(C)C)c1ccccc1` (racemic) [IV-354, N-(3-Hydroxy-2,2-dimethyl-1-phenylpropyl)-6,6-dimethyl-3-[1-(trimethylsilyl)cyclobutanecarboxamido]-4,6-dihydropyrrolo[3,4-c]pyrazole-5(1H)-carboxamide], the IC50 is ≤ 50 nM.

Turning to `CC(C)(CO)C(NC(=O)N1Cc2c(NC(=O)C3([Si](C)(C)C)CCC3)n[nH]c2C1(C)C)c1ccccc1` (single isomer, unassigned; (-)) [IV-673, (−)-N-(3-Hydroxy-2,2-dimethyl-1-phenylpropyl)-6,6-dimethyl-3-[1-(trimethylsilyl)cyclobutanecarboxamido]-4,6-dihydropyrrolo[3,4-c]pyrazole-5(1H)-carboxamide], the IC50 is ≤ 50 nM.

With `CCCO[C@@H](C(=O)N1Cc2c(NC(=O)C3([Si](C)(C)C)CCC3)n[nH]c2C1(C)C)c1ccccc1` [IV-1196, (R)—N-[6,6-Dimethyl-5-(2-phenyl-2-propoxyacetyl)-1,4,5,6-tetrahydropyrrolo[3,4-c]pyrazol-3-yl]-1-(trimethylsilyl)cyclobutanecarboxamide], the IC50 is ≤ 50 nM.

With `CC1(C)c2[nH]nc(NC(=O)C3([Si](C)(C)C)CCC3)c2CN1C(=O)[C@H](OC(F)(F)F)c1ccccc1` [IV-1184, (R)—N-{6,6-Dimethyl-5-[2-phenyl-2-(trifluoromethoxy)acetyl]-1,4,5,6-tetrahydropyrrolo[3,4-c]pyrazol-3-yl}-1-(trimethylsilyl)cyclobutanecarboxamide], the IC50 was ≤ 50 nM.

Turning to `CC1(C)c2[nH]nc(NC(=O)C3([Si](C)(C)C)CCC3)c2CN1C(=O)N[C@H](CC1(O)CC1)c1ccccc1` [IV-743, (R)—N-[2-(1-Hydroxycyclopropyl)-1-phenylethyl]-6,6-dimethyl-3-[1-(trimethylsilyl)cyclobutanecarboxamido]-4,6-dihydropyrrolo[3,4-c]pyrazole-5(1H)-carboxamide], the half-inhibitory concentration (IC50) is ≤ 50 nM.

Take `CO[C@@H](C(=O)N1Cc2c(NC(=O)C3([Si](C)(C)C)CCC3)n[nH]c2C1(C)C)c1ccccc1F` [IV-1383, (R)—N-{5-[2-(2-Fluorophenyl)-2-methoxyacetyl]-6,6-dimethyl-1,4,5,6-tetrahydropyrrolo[3,4-c]pyrazol-3-yl}-1-(trimethylsilyl)cyclobutanecarboxamide]: the IC50 was ≤ 50 nM.

Take `CC(C)(O)C[C@@H](NC(=O)N1Cc2c(NC(=O)C3([Si](C)(C)C)CCC3)n[nH]c2C1(C)C)c1ccc(F)cc1` [IV-939, (R)—N-[1-(4-Fluorophenyl)-3-hydroxy-3-methylbutyl]-6,6-dimethyl-3-[1-(trimethylsilyl)cyclobutanecarboxamido]-4,6-dihydropyrrolo[3,4-c]pyrazole-5(1H)-carboxamide]: the half-maximal inhibitory concentration (IC50) was ≤ 50 nM.

Take `CC1(C)c2[nH]nc(NC(=O)C3([Si](C)(C)C)CCC3)c2CN1C(=O)NC(c1ccccc1)C1(CO)CCC1` (stereo not shown) [IV-718, N-{[1-(Hydroxymethyl)cyclobutyl](phenyl)methyl}-6,6-dimethyl-3-[1-(trimethylsilyl)cyclobutanecarboxamido]-4,6-dihydropyrrolo[3,4-c]pyrazole-5(1H)-carboxamide]: the IC50 was ≤ 50 nM.

In the case of `CC(C)(O)C[C@@H](NC(=O)N1Cc2c(NC(=O)C3([Si](C)(C)C)CCC3)n[nH]c2C1(C)C)c1cccc(F)c1` [IV-911, (R)—N-[1-(3-Fluorophenyl)-3-hydroxy-3-methylbutyl]-6,6-dimethyl-3-[1-(trimethylsilyl)cyclobutanecarboxamido]-4,6-dihydropyrrolo[3,4-c]pyrazole-5(1H)-carboxamide], the 50% inhibitory concentration (IC50) is ≤ 50 nM.

For the compound `COC(C(=O)N1Cc2c(NC(=O)C3([Si](C)(C)C)CCC3)n[nH]c2C1(C)C)c1cccs1` (stereo not shown) [IV-1546, N-{5-[2-Methoxy-2-(thiophen-2-yl)acetyl]-6,6-dimethyl-1,4,5,6-tetrahydropyrrolo[3,4-c]pyrazol-3-yl}-1-(trimethylsilyl)cyclobutanecarboxamide], the IC50 is ≤ 50 nM.

As for `CC1(C)c2[nH]nc(NC(=O)C3([Si](C)(C)C)CCC3)c2CN1C(=O)[C@H](OC1CC1)c1ccccc1` [IV-1208, (R)—N-[5-(2-Cyclopropoxy-2-phenylacetyl)-6,6-dimethyl-1,4,5,6-tetrahydropyrrolo[3,4-c]pyrazol-3-yl]-1-(trimethylsilyl)cyclobutanecarboxamide], the IC50 is ≤ 50 nM.

Turning to `COC(C(=O)N1Cc2c(NC(=O)C3([Si](C)(C)C)CCC3)n[nH]c2C1(C)C)c1cccc(F)c1` (stereo not shown) [IV-1404, N-{5-[2-(3-Fluorophenyl)-2-methoxyacetyl]-6,6-dimethyl-1,4,5,6-tetrahydropyrrolo[3,4-c]pyrazol-3-yl}-1-(trimethylsilyl)cyclobutanecarboxamide], the half-maximal inhibitory concentration (IC50) was ≤ 50 nM.

Regarding `CC(C)O[C@@H](C(=O)N1Cc2c(NC(=O)C3([Si](C)(C)C)CCC3)n[nH]c2C1(C)C)c1ccccc1` [IV-1204, (R)—N-[5-(2-Isopropoxy-2-phenylacetyl)-6,6-dimethyl-1,4,5,6-tetrahydropyrrolo[3,4-c]pyrazol-3-yl]-1-(trimethylsilyl)cyclobutanecarboxamide], the IC50 is ≤ 50 nM.

The subject of the next experiment is Human keratinocytes (NHEK-Neo Pooled). Nature of the experiment: Human keratinocyte growth inhibition assay. The class given is cell-based. The note with it: 48 h, culture for 2 days, Cell Counting Kit-8. As to the method:
Human Keratinocyte Growth Inhibition Assay
The measurement of a human keratinocyte growth inhibitory effect was carried out by modifying the method of Schafer et al. (British Journal of Pharmacology, 159, 842 (2011)).
Human keratinocytes (NHEK-Neo Pooled, manufactured by Lonza Group AG, Cat. No. 00192906) were cultured in KGM-Gold Bullet Kit (manufactured by Lonza Group AG, Cat. No. 00192060) and inoculated at 2.0×10^3 cells/well to a 96-well plate. After overnight culture in a carbon dioxide incubator, a test compound dissolved in DMSO (final DMSO concentration: 0.1%) was added and left standing in a carbon dioxide incubator. After culture for 2 days, the absorbance thereof was measured by using Cell Counting Kit-8 (343-07623 manufactured by Dojindo Laboratories)).
The rate of inhibition of cell growth at each concentration was calculated from the test compound concentration and the absorbance of Cell Counting Kit-8, and the concentration of the test compound necessary for inhibiting 50% of cell growth (IC50 value) was calculated by using EXSUS (version 8.0.0 or version 8.0.1, manufactured by CAC Exicare Corp.).
Background: Tetrazolium dyes change colour on reduction, which living cells bring about.
Consider `CC1(C)c2[nH]nc(NC(=O)C3([Si](C)(C)C)CCC3)c2CN1C(=O)[C@H](OC(F)F)c1ccccc1` [IV-1180, (R)—N-{5-[2-(Difluoromethoxy)-2-phenylacetyl]-6,6-dimethyl-1,4,5,6-tetrahydropyrrolo[3,4-c]pyrazol-3-yl}-1-(trimethylsilyl)cyclobutanecarboxamide], for which the concentration for half-maximal inhibition (IC50) is ≤ 500 nM.

Turning to `CCOC[C@@H](NC(=O)N1Cc2c(NC(=O)C3([Si](C)(C)C)CCC3)n[nH]c2C1(C)C)c1ccccc1` [IV-139, (S)—N-(2-Ethoxy-1-phenylethyl)-6,6-dimethyl-3-[1-(trimethylsilyl)cyclobutanecarboxamido]-4,6-dihydropyrrolo[3,4-c]pyrazole-5(1H)-carboxamide], the concentration for half-maximal inhibition (IC50) was ≤ 500 nM.

As for `CC(C)(CO)C(NC(=O)N1Cc2c(NC(=O)C3([Si](C)(C)C)CCC3)n[nH]c2C1(C)C)c1ccccc1` (racemic) [IV-354, N-(3-Hydroxy-2,2-dimethyl-1-phenylpropyl)-6,6-dimethyl-3-[1-(trimethylsilyl)cyclobutanecarboxamido]-4,6-dihydropyrrolo[3,4-c]pyrazole-5(1H)-carboxamide], the concentration for half-maximal inhibition (IC50) is ≤ 500 nM.
